Converted amounts (≈) assume the structure as drawn. Read-outs that look alike come from different tables or passages of the source.
Legend:
in vitro [1] = details: mouse, microsomes, pH 7.4
M. tuberculosis H37Rv [2] = assay: microbe, parasite or virus in culture; type: cell-based; details: Mycobacterium tuberculosis, read-out: MIC H37Rv
[3] = system: Enterococcus faecium, Enterococcus faecalis, Haemophilus influenzae, Moraxella catarrhalis, Streptococcus pneumoniae, Escherichia coli and Streptococcus …; type: cell-based, Gram-positive and Gram-negative organisms
[4] = Whole blood pharmacokinetics after oral administration in mice; type: in vivo, C57BL/6 female mice; details: female, mouse, oral 50 mg/kg suspension in 1% aqueous methylcellulose
Experimental: (§1) For pharmacokinetic studies C57BL/6 female mice of 18–20 g weight were used. Experimental compounds were administered through oral gavage at 50 mg/kg dose at a concentration of 20 ml/kg. All mice received treatment in the fed state. Peripheral total blood was the compartment chosen for the establishment of compound concentrations. Drugs were administered as 1% methyl cellulose suspensions and the blood sampling scheme was: 15, 30 and 45 minutes, 1, 1.5, 2, 3, 4, 8 and 24 hours. At each time-point, blood from 4 different animals was obtained. LC-MS was used as the analytical method of choice for the establishment of compound concentration in blood with a sensitivity of LLQ = 1–5 ng/ml in […]. The non-compartmental data analysis was performed with WinNonlin 5.0 and supplementary analysis was performed with GraphPad 4 software. Dose-response studies in an acute murine infection TB model were carried out as previously described.
Figure 2 Whole blood pharmacokinetic profile and main parameters of IP 3 after oral administration of a 50 mg/kg suspension in 1% aqueous methylcellulose.

in vitro [5] = details: human, microsomes, pH 7.4
M. tuberculosis H37Rv [6] = assay: Dose response efficacy in acute murine model of TB infection; type: in vivo, B6 mice
Experimental: as §1
Figure 3 Therapeutic efficacy of anti-tubercular IP 3 against M. tuberculosis H37Rv in vivo. B6 mice were infected by intra-tracheal instillation with 10^5 cfu M. tuberculosis H37Rv per mouse. The mice were treated with the anti-tubercular orally once a day from day 1 to day 8. Efficacy results are expressed as log cfu reduction in the lungs of infected mice and are the mean±SD of five mice. The shaded line indicates the levels of administered mycobacterial inoculum.

[7] = system: L1210, HepG2, NEURO 2A, MDCK and H9C2(2-1)
[8] = system: M. bovis BCG strain Pasteur; assay: microbe, parasite or virus in culture; type: cell-based; details: Mycobacterium tuberculosis variant bovis BCG, read-out: MIC M. bovis BCG
[9] = not given; remark: listed apart in the source
cytochrome bc 1 complex = biological target: cytochrome bc 1 complex; design: method as in PMID 6327677; details: high affinity binding site Qo; cited from earlier work
M. tuberculosis CDC1551 = assay: microbe, parasite or virus in culture; type: cell-based; details: Mycobacterium tuberculosis, CDC1551, read-out: MIC CDC1551
M. tuberculosis inh233 = assay: microbe, parasite or virus in culture; type: cell-based; details: Mycobacterium tuberculosis, INH233, read-out: MIC inh233
M. tuberculosis Beijing = assay: microbe, parasite or virus in culture; type: cell-based; details: Mycobacterium tuberculosis, read-out: MIC Beijing

With Cc1ccc2nc(C)c(C(=O)NCc3ccc(C(F)(F)F)cc3)n2c1 [IP 3, 2,6-Dimethyl-N-(4-(trifluoromethyl)benzyl)imidazo[1,2-a]pyridine-3-carboxamide] as the molecule, how does the half-life (in vitro [1]) read?
Its half-life is 11.6 min.

What about the MIC (M. tuberculosis H37Rv [2]) of the same molecule?
Its MIC is 0.03 µM (≈ 0.0104 µg/mL).

What about the “Mouse CLint” value (mouse, microsomes) of the same molecule?
The value was 7 ml/min/gprotein.

What about the “MIC Anti-bacterial panel” value [3] of the same molecule?
The value was “all>16 µM”.

What about the bioavailability ([4]; C57BL/6, whole blood, read-out: F (percentage bioavailability)) of the same molecule?
Its bioavailability is 61%.

And the AUC ([4]; C57BL/6, whole blood, read-out: AUC (Area Under the Curve) (0–8 hours))?
The AUC was 4360 ng·h/mL.

What about the Cmax ([4]; C57BL/6, whole blood, read-out: Cmax (maximum concentration observed in whole blood)) of the same molecule?
The Cmax was 3400 ng/mL.

And the half-life (in vitro [5])?
Its half-life is 15.8 min.

And the “log cfu reduction with respect to non-treated controls” value (M. tuberculosis H37Rv [6]; 300 mg/kg orally once a day from day 1 to day 8, lungs of infected mice)?
Its value is 2 log cfu.

What about the “log cfu reduction with respect to non-treated controls” value (M. tuberculosis H37Rv [6]; 500 mg/kg orally once a day from day 1 to day 8, lungs of infected mice) of the same molecule?
The value was 2 log cfu.

What about the behavior in vivo (M. tuberculosis H37Rv [6]; acute murine model of TB infection) of the same molecule?
Its behavior in vivo is “bacteriostatic”.

And the signs of toxicity (M. tuberculosis H37Rv [6]; any of the administered doses, mice)?
The signs of toxicity was “No signs of toxicity”.

And the “Tox50 Cell lines” value [7]?
Its value is “all>25 µM”.

What about the MIC [8] of the same molecule?
Its MIC is 0.5 µM (≈ 0.174 µg/mL).

And the “Human CLint” value ([9]; human, microsomes)?
The value was 4.9 ml/min/gprotein.

With CO/C(=C/C(N)=O)[C@H](C)[C@H](/C=C/c1csc(-c2csc([C@@H](C)/C=C/C=C/C(C)C)n2)n1)OC [Myxothiazol, myxothiazol] as the molecule, how does the Kd (cytochrome bc 1 complex) read?
Its Kd is under 1 nM.

Which results are given for Cc1ccc2nc(C(F)(F)F)c(C(=O)NCc3cccc(Cl)c3)n2c1 [IP 2]?
MIC (M. tuberculosis CDC1551): 0.06 µM (≈ 0.0221 µg/mL); half-life at 0.5 mM (in vitro [1]): < 3 min; MIC (M. tuberculosis inh233): 0.03 µM (≈ 0.011 µg/mL); MIC (M. tuberculosis H37Rv [2]): 0.2 µM (≈ 0.0736 µg/mL); Mouse CLint (mouse liver microsomes): >30 ml/min/gprotein; MIC Anti-bacterial panel [3]: all>16 µM; half-life at 0.5 mM (in vitro [5]): < 3 min; Tox50 Cell lines [7]: all>50 µM; Human CLint ([9]; human liver microsomes): >30 ml/min/gprotein; MIC (M. tuberculosis Beijing): 0.06 µM (≈ 0.0221 µg/mL)

With Cc1ccc2nc(C)c(C(=O)NCc3cccs3)n2c1 [IP 1] as the molecule, how does the MIC (M. tuberculosis CDC1551) read?
Its MIC is 0.06 µM (≈ 0.0171 µg/mL).

What about the half-life at 0.5 mM (in vitro [1]) of the same molecule?
Its half-life at 0.5 mM is under 3 min.

What about the MIC (M. tuberculosis inh233) of the same molecule?
The MIC was 0.03 µM (≈ 0.00856 µg/mL).

What about the MIC (M. tuberculosis H37Rv [2]) of the same molecule?
Its MIC is 0.2 µM (≈ 0.0571 µg/mL).

What about the “Mouse CLint” value (mouse liver microsomes) of the same molecule?
Its value is over 30 ml/min/gprotein.

What about the “MIC Anti-bacterial panel” value [3] of the same molecule?
The value was “all>64 µM”.

And the “Tox50 Cell lines” value [7]?
Its value is “all>25 µM”.

What about the MIC [8] of the same molecule?
Its MIC is 1 µM (≈ 0.285 µg/mL).

And the “Human CLint” value ([9]; human liver microsomes)?
The value was 3.9 ml/min/gprotein.

What about the MIC (M. tuberculosis Beijing) of the same molecule?
The MIC was 0.03 µM (≈ 0.00856 µg/mL).

Which half-life (in vitro [1]) does the source give for Cc1ccc2nc(C)c(C(=O)NCc3ccc(Cl)nc3)n2c1 [IP 4, N-((6-Chloropyridin-3-yl)methyl)-2,6-dimethylimidazo[1,2-a]pyridine-3-carboxamide] here?
The half-life was 11.4 min.

What about the MIC (M. tuberculosis H37Rv [2]) of the same molecule?
Its MIC is 5 µM (≈ 1.57 µg/mL).

What about the “Mouse CLint” value (mouse, microsomes) of the same molecule?
The value was 7.4 ml/min/gprotein.

And the “MIC Anti-bacterial panel” value [3]?
The value was “all>16 µM”.

And the half-life (in vitro [5])?
The half-life was over 30 min.

What about the “Tox50 Cell lines” value [7] of the same molecule?
The value was “all>50 µM”.

What about the MIC [8] of the same molecule?
The MIC was 5 µM (≈ 1.57 µg/mL).

And the “Human CLint” value ([9]; human, microsomes)?
Its value is 2.3 ml/min/gprotein.

— paper PMC3534098 (PLoS ONE, 2012)
